Experimental findings from ChEMBL document CHEMBL1687741, “Population pharmacokinetics of lumefantrine in pregnant women treated with artemether-lumefantrine for uncomplicated Plasmodium falciparum malaria” (Antimicrob Agents Chemother, 2009) are described below.

Common to all, as to assay type: ADME, organism-based
The subject of series [1] is Homo sapiens. As to the kind of experiment: Clearance in pregnant human patient with uncomplicated multidrug-resistant Plasmodium falciparum malaria at 120 mg, po administered as 4 tablets BID for 3 days coadministered with 20 mg artemether by two-compartment population pharmacokinetic model. The settings on record: in vivo, 72 h.
Series [2] in a line: Cmax in pregnant human patient with uncomplicated multidrug-resistant Plasmodium falciparum malaria at 120 mg, po administered as 4 tablets BID for 4 days coadministered with 20 mg artemether by two-compartment population pharmacokinetic model. The note with it: female, in vivo. More on the design: dose 120 mg, route oral.
A short description of series [3]: Cmax in capillary plasma of pregnant human patient with uncomplicated multidrug-resistant Plasmodium falciparum malaria at 120 mg, po administered as 4 tablets BID for 5 days coadministered with 20 mg artemether measured on 7 days by two-compartment population pharmacokinetic model. More on the design: dose 120 mg, route oral. The note with it: female.
Series [4] relates to Homo sapiens. Nature of the series: Volume of distribution at steady state in pregnant human patient with uncomplicated multidrug-resistant Plasmodium falciparum malaria at 120 mg, po administered as 4 tablets BID for 3 days coadministered with 20 mg artemether by two-compartment population pharmacokinetic model. The note with it: in vivo, 72 h.
Series [5] is described as follows: Cmax in pregnant human patient with uncomplicated multidrug-resistant Plasmodium falciparum malaria at 120 mg, po administered as 4 tablets BID for 5 days coadministered with 20 mg artemether by two-compartment population pharmacokinetic model. More on the design: dose 120 mg, route oral. The note with it: female, in vivo.
Series [6] is described as follows: Cmax in pregnant human patient with uncomplicated multidrug-resistant Plasmodium falciparum malaria at 120 mg, po administered as 4 tablets BID for 4 days coadministered with 20 mg artemether measured after 7 days by two-compartment population pharmacokinetic model. The note with it: female, in vivo. Set-up: dose 120 mg, route oral.
Series [7] deals with Homo sapiens. As to the kind of experiment: Apparent peripheral volume of distribution in pregnant human patient with uncomplicated multidrug-resistant Plasmodium falciparum malaria at 120 mg, po administered as 4 tablets BID for 3 days coadministered with 20 mg artemether by two-compartment population pharmacokinetic model. The note with it: in vivo, 72 h.
Series [8] is described as follows: Cmax in venous plasma of pregnant human patient with uncomplicated multidrug-resistant Plasmodium falciparum malaria at 120 mg, po administered as 4 tablets BID for 5 days coadministered with 20 mg artemether measured on 7 days by two-compartment population pharmacokinetic model. Set-up: dose 120 mg, route oral. The settings on record: female.
Series [9] can be described thus: Drug concentration in pregnant human patient with uncomplicated multidrug-resistant Plasmodium falciparum malaria at 120 mg, po administered as 4 tablets BID for 3 days coadministered with 20 mg artemether. The settings on record: female, in vivo, read-out: Drug uptake.
Series [10] can be described thus: Terminal elimination half-life in pregnant human patient with uncomplicated multidrug-resistant Plasmodium falciparum malaria at 120 mg, po administered as 4 tablets BID for 3 days coadministered with 20 mg artemether by two-compartment population pharmacokinetic model. The settings on record: female, in vivo, read-out: beta t1/2 (converted).
Series [11] in a line: Cmax in pregnant human patient with uncomplicated multidrug-resistant Plasmodium falciparum malaria at 120 mg, po administered as 4 tablets BID for 3 days coadministered with 20 mg artemether by two-compartment population pharmacokinetic model. The settings on record: female, in vivo. More on the design: dose 120 mg, route oral.
Series [12] deals with Homo sapiens. Nature of the series: AUC (0 to infinity) in pregnant human patient with uncomplicated multidrug-resistant Plasmodium falciparum malaria at 120 mg, po administered as 4 tablets BID for 3 days coadministered with 20 mg artemether by two-compartment population pharmacokinetic model. More on the design: dose 120 mg, time infinity, route oral. The note with it: in vivo, 72 h.

Series [13] can be described thus: Drug concentration in pregnant human patient with uncomplicated multidrug-resistant Plasmodium falciparum malaria at 120 mg, po administered as 4 tablets BID for 3 days coadministered with 20 mg artemether measured after 7 days by two-compartment population pharmacokinetic model. The settings on record: female, in vivo, read-out: Drug uptake.
Series [14] in a line: Drug concentration in pregnant human patient with reappeared uncomplicated multidrug-resistant Plasmodium falciparum malaria infection at 120 mg, po administered as 4 tablets BID for 3 days coadministered with 20 mg artemether. The settings on record: female, in vivo, read-out: Drug uptake.
A short description of series [15]: Drug concentration in pregnant human with uncomplicated multidrug-resistant Plasmodium falciparum malaria infection at 120 mg, po administered as 4 tablets BID for 3 days coadministered with 20 mg artemether. The settings on record: female, in vivo, read-out: Drug uptake.
For series [16], the system named is Homo sapiens. As to the kind of experiment: Apparent volume of distribution in pregnant human patient with uncomplicated multidrug-resistant Plasmodium falciparum malaria at 120 mg, po administered as 4 tablets BID for 3 days coadministered with 20 mg artemether by two-compartment population pharmacokinetic model. The note with it: in vivo, 72 h.
In series [17] the test system is Homo sapiens. Nature of the series: Tlag in pregnant human patient with uncomplicated multidrug-resistant Plasmodium falciparum malaria at 120 mg, po administered as 4 tablets BID for 3 days coadministered with 20 mg artemether measured after 7 days by two-compartment population pharmacokinetic model. The settings on record: in vivo.
The nature of series [18]: Cmax in pregnant human patient with uncomplicated multidrug-resistant Plasmodium falciparum malaria at 120 mg, po administered as 4 tablets BID for 5 days coadministered with 20 mg artemether measured after 7 days by two-compartment population pharmacokinetic model. More on the design: dose 120 mg, route oral. The note with it: female, in vivo.
Series [19] deals with Homo sapiens. As to the kind of experiment: Absorption rate constant in pregnant human patient with uncomplicated multidrug-resistant Plasmodium falciparum malaria at 120 mg, po administered as 4 tablets BID for 3 days coadministered with 20 mg artemether by two-compartment population pharmacokinetic model. The settings on record: in vivo, 72 h.
Series [20] deals with Homo sapiens. Nature of the series: Intercompartmental clearance in pregnant human patient with uncomplicated multidrug-resistant Plasmodium falciparum malaria at 120 mg, po administered as 4 tablets BID for 3 days coadministered with 20 mg artemether by two-compartment population pharmacokinetic model. The note with it: in vivo, 72 h.

As usually defined, the Cmax is the maximum level reached in the sampled fluid or tissue. The term AUC denotes the area under the concentration-time curve, a measure of exposure. With `CCCCN(CCCC)CC(O)c1cc(Cl)cc2c1-c1ccc(Cl)cc1/C2=C/c1ccc(Cl)cc1` (stereo not given) [LUMEFANTRINE], the CL in the series with Homo sapiens [1] stood at 6.11 L/h; in the series with Homo sapiens [20] it was 1.82 L/h. Also, the Cmax in series [2] turned out to be 2480 ng/mL; in series [3] it was 433 ng/mL; in series [5], 2430 ng/mL; in series [6] it was 314 ng/mL; in series [8], 49 ng/mL; in series [11], 2080 ng/mL. The Cmax in [18] was determined as 498 ng/mL. The values for the Vz with Homo sapiens [4] and in the series on Homo sapiens [16] were 181 L and 20.2 L, respectively. Besides, in the series with Homo sapiens [7], the Vp/F is 160 L. In addition, the concentration at 72 h was found to be 135 ng/mL in [9], 126 ng/mL in series [14] and 136 ng/mL in series [15]. Also, in series [10], the half-life is 3.3 days. Also, the AUC in the series with Homo sapiens [12] is 472 mg·h/L. The concentration at 168 h in [13] was found to be 391 ng/mL. For the same compound, in the series with Homo sapiens [17], the Time was 1.67 h. Also, the Ka with Homo sapiens [19] worked out at 0.0588 h⁻¹.
